According to patent US9586951B2 (FUJIFILM Corporation, priority 2013, dated 2017):

Target: T1, ATM (Homo sapiens, UniProt Q13315)
T1 construct: detecting phosphorylation of Chk2 in a human non-small cell lung cancer cell line NCI-H460 (ATCC company); host or cells: NCI-H460 human non-small cell lung cancer cells
Experiment: ATM inhibition test (phosphorylation of Chk2 generated by ionizing radiation, AlphaScreen SureFire)
Format: cell-based
Conditions: ATM inhibitory activity, phosphorylated Chk2 in NCI-H460 cells, ionizing radiation 8Gy, 1 hour after test compound treatment
Method in brief: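 NCI-H460 cells, compound 1 h pre-treatment, 8Gy IR, further 1 h at 37° C in 5% CO2. Read-out: phospho-Chk2 via AlphaScreen SureFire. % inhibition relative to IR-induced signal window (irradiated vs non-irradiated drug-free wells).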

T1 sequence (Q13315 whole entry): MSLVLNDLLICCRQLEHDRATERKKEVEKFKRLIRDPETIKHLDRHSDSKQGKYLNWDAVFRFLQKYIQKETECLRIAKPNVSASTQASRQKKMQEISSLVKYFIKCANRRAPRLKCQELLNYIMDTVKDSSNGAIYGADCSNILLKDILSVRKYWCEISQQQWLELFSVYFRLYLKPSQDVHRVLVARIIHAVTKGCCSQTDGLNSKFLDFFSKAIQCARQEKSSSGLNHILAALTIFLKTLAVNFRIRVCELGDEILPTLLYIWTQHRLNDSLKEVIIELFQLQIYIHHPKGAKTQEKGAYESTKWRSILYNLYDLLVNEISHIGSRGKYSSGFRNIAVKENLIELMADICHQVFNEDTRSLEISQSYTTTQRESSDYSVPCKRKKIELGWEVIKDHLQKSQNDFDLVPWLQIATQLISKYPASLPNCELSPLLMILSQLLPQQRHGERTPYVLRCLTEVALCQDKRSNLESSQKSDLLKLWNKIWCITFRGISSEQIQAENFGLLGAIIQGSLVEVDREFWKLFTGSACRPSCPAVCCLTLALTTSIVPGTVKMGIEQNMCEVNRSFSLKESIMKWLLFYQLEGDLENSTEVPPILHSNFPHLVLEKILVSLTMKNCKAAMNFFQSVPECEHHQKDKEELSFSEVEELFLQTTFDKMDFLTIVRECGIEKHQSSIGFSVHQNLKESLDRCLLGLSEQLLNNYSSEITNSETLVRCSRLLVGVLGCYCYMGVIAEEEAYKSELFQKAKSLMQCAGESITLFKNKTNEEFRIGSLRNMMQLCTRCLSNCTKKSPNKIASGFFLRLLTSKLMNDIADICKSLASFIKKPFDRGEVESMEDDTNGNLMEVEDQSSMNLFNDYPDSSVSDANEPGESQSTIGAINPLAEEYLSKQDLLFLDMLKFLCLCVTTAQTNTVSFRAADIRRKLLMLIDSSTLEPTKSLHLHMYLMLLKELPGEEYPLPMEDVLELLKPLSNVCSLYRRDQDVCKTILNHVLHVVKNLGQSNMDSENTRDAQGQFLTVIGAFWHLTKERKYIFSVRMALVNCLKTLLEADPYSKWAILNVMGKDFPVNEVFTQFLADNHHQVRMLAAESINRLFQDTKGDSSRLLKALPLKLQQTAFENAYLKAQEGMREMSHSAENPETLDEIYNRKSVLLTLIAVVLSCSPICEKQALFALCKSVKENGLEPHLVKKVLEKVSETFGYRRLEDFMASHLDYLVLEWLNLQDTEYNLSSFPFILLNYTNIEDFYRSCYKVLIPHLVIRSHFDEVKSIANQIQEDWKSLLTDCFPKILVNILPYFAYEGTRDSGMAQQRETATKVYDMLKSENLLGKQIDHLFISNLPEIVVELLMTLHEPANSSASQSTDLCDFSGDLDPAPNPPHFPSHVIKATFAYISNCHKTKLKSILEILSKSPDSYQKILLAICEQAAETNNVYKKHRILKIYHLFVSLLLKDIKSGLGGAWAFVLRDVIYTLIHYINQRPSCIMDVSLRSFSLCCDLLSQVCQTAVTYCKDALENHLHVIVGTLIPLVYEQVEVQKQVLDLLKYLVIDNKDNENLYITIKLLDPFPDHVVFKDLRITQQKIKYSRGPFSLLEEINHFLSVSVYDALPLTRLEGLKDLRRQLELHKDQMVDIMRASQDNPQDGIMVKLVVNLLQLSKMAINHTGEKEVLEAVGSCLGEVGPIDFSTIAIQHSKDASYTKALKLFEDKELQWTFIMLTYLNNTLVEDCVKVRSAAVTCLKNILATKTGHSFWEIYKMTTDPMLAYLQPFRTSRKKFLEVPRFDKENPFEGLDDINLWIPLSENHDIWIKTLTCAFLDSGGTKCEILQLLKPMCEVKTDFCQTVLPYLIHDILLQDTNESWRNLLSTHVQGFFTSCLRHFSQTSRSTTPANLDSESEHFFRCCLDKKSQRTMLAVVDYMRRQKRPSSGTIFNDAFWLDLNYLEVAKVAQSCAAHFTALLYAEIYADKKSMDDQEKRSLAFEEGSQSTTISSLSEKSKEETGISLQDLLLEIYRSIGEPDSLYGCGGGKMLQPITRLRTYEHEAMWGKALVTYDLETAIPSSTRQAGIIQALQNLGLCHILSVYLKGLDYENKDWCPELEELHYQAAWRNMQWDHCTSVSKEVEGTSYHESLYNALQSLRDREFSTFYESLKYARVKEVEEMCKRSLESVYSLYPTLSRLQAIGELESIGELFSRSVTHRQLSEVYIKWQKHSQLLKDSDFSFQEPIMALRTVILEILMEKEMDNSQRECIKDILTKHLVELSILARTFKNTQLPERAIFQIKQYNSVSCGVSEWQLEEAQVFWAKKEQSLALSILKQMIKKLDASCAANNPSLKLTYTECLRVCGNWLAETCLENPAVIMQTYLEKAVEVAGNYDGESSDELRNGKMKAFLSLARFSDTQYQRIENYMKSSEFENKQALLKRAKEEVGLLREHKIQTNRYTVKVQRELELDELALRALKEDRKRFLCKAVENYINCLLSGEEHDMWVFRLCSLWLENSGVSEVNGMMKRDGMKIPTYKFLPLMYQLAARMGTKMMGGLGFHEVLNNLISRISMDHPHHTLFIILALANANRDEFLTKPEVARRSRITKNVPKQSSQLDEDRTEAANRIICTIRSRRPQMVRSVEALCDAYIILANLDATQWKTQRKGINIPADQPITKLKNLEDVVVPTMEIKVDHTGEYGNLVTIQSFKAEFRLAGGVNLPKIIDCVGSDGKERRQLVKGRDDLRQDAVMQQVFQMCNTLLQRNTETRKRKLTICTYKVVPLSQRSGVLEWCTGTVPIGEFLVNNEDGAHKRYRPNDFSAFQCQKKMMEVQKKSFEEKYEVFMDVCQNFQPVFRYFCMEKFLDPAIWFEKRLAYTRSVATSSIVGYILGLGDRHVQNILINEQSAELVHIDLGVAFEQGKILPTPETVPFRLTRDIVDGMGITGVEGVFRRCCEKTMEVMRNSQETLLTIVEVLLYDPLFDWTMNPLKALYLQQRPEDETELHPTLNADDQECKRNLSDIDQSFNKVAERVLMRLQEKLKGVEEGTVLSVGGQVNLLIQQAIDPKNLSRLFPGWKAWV

| SMILES | IC50 [nM] |
| --- | --- |
| O=c1cc(N2CCOCC2)cc(-c2cccc3c2Sc2ccc(N4CC4CN4CCOCC4)cc2S3)[nH]1 (centres unmarked) [Example 1-38, 4-morpholino-6-(7-(2-(morpholinomethyl)aziridin-1-yl)thianthren-1-yl)pyridin-2(1H)-one] | 100 to 500 |
| O=c1cc(N2CCOCC2)cc(-c2cccc3c2Sc2ccc(N4CC4CF)cc2S3)[nH]1 (centres unmarked) [Example 1-40, 6-(7-(2-(fluoromethyl)aziridin-1-yl)thianthren-1-yl)-4-morpholinopyridin-2(1H)-one] | 100 to 500 |

Same assay, conditions: phosphorylated Chk2 in NCI-H460 cells, ionizing radiation 8Gy, 1 hour after test compound treatment; read-out: ATM inhibitory activity

| IC50 [nM] | SMILES |
| --- | --- |
| 100 to 500 | O=c1cc(N2CCOCC2)cc(-c2cccc3c2Sc2ccc(NC4CCN(Cc5ccncc5)CC4)cc2S3)[nH]1 [Example 1-24-20, 4-Morpholino-6-(7-((1-(pyridin-4-ylmethyl)piperidin-4-yl)amino)thianthren-1-yl)pyridin-2 (1H)-one] |
| 100 to 500 | O=c1cc(N2CCOCC2)cc(-c2cccc3c2Sc2ccc(NC4CN(Cc5cccnc5)C4)cc2S3)[nH]1 [Example 1-24-21, 4-Morpholino-6-(7-((1-(pyridin-3-ylmethyl)azetidin-3-yl)amino)thianthren-1-yl)pyridin-2(1H)-one] |
| 100 to 500 | O=c1cc(N2CCOCC2)cc(-c2cccc3c2Sc2ccc(NC4CCN(CC(F)(F)F)CC4)cc2S3)[nH]1 [Example 1-25, 4-morpholino-6-(7-((1-(2,2,2-trifluoroethyl)piperidin-4-yl)amino)thianthren-1-yl)pyridin-2(1H)-one] |
| < 100 | COCCN1CCCC(Nc2ccc3c(c2)Sc2cccc(-c4cc(N5CCOCC5)cc(=O)[nH]4)c2S3)C1 (centres unmarked) [Example 1-26-2, 6-(7-((1-(2-Methoxyethyl)piperidin-3-yl)amino)thianthren-1-yl)-4-morpholinopyridin-2(1H)-one] |
| 100 to 500 | COc1ccc(CCN2CCC(Nc3ccc4c(c3)Sc3cccc(-c5cc(N6CCOCC6)cc(=O)[nH]5)c3S4)CC2)cc1 [Example 1-27, 6-(7-((1-(4-methoxyphenethyl)piperidin-4-yl)amino)thianthren-1-yl)-4-morpholinopyridin-2(1H)-one] |
| 500 to 2000 | COCC(=O)N1CCC(Nc2ccc3c(c2)Sc2cccc(-c4cc(N5CCOCC5)cc(=O)[nH]4)c2S3)CC1 [Example 1-28, 6-(7-((1-(2-methoxyacetyl)piperidin-4-yl)amino)thianthren-1-yl)-4-morpholinopyridin-2(1H)-one] |
| 100 to 500 | CC(C)(O)CN1CCC(Nc2ccc3c(c2)Sc2cccc(-c4cc(N5CCOCC5)cc(=O)[nH]4)c2S3)CC1 [Example 1-29-1, 6-(7-((1-(2-hydroxy-2-methylpropyl)piperidin-4-yl)amino)thianthren-1-yl)-4-morpholinopyridin-2(1H)-one] |
| 100 to 500 | CN(C)CCN1CCC(Nc2ccc3c(c2)Sc2cccc(-c4cc(N5CCOCC5)cc(=O)[nH]4)c2S3)CC1 [Example 1-29-2, 6-(7-((1-(2-(Dimethylamino)ethyl)piperidin-4-yl)amino)thianthren-1-yl)-4-morpholinopyridin-2(1H)-one] |
| 500 to 2000 | CN(c1ccc2c(c1)Sc1cccc(-c3cc(N4CCOCC4)cc(=O)[nH]3)c1S2)C1CCCNC1 (centres unmarked) [Example 1-30, 6-(7-(methyl(piperidin-3-yl)amino)thianthren-1-yl)-4-morpholinopyridin-2(1H)-one] |
| 100 to 500 | CN1CCC(Nc2ccc3c(c2)Sc2cccc(-c4cc(N5CCOCC5)cc(=O)[nH]4)c2S3)C1 (centres unmarked) [Example 1-31-1, 6-(7-((1-Methylpyrrolidin-3-yl)amino)thianthren-1-yl)-4-morpholinopyridin-2(1H)-one] |
| 100 to 500 | Cc1cnc(C(CN(C)C)Nc2ccc3c(c2)Sc2cccc(-c4cc(N5CCOCC5)cc(=O)[nH]4)c2S3)cn1 (centres unmarked) [Example 1-32, 6-(7-((2-(dimethylamino)-1-(5-methylpyrazin-2-yl)ethyl)amino)thianthren-1-yl)-4-morpholinopyridin-2(1H)-one] |
| 100 to 500 | CCN(CC)CC(Nc1ccc2c(c1)Sc1cccc(-c3cc(N4CCOCC4)cc(=O)[nH]3)c1S2)c1cnc(C)cn1 (centres unmarked) [Example 1-33, 6-(7-((2-(diethylamino)-1-(5-methylpyrazin-2-yl)ethyl)amino)thianthren-1-yl)-4-morpholinopyridin-2(1H)-one] |
| 100 to 500 | CCNCC(Nc1ccc2c(c1)Sc1cccc(-c3cc(N4CCOCC4)cc(=O)[nH]3)c1S2)c1cccc(C)n1 (centres unmarked) [Example 1-34-1, 6-(7-((2-(ethylamino)-1-(6-methylpyridin-2-yl)ethyl)amino)thianthren-1-yl)-4-morpholinopyridin-2(1H)-one] |
| 100 to 500 | COCCNCC(Nc1ccc2c(c1)Sc1cccc(-c3cc(N4CCOCC4)cc(=O)[nH]3)c1S2)c1cccc(C)n1 (centres unmarked) [Example 1-34-2, 6-(7-((2-((2-Methoxyethyl)amino)-1-(6-methylpyridin-2-yl)ethyl)amino)thianthren-1-yl)-4-morpholino pyridin-2 (1H)-one] |
| < 100 | Cc1cccc(C(CCN2CCCCC2)Nc2ccc3c(c2)Sc2cccc(-c4cc(N5CCOCC5)cc(=O)[nH]4)c2S3)n1 (centres unmarked) [Example 1-34-3, 6-(7-((1-(6-Methylpyridin-2-yl)-3-(piperidin-1-yl)propyl)amino)thianthren-1-yl)-4-morpholino pyridin-2(1H)-one] |
| 100 to 500 | Cc1cccc(C(CCO)Nc2ccc3c(c2)Sc2cccc(-c4cc(N5CCOCC5)cc(=O)[nH]4)c2S3)n1 (centres unmarked) [Example 1-34-5, 6-(7-((3-Hydroxy-1-(6-methylpyridin-2-yl)propyl)amino)thianthren-1-yl)-4-morpholino pyridin-2(1H)-one] |
| 100 to 500 | Cc1cccc(C(CCN2CCCC2)Nc2ccc3c(c2)Sc2cccc(-c4cc(N5CCOCC5)cc(=O)[nH]4)c2S3)n1 (centres unmarked) [Example 1-34-6, 6-(7-((1-(6-Methylpyridin-2-yl)-3-(pyrrolidin-1-yl)propyl)amino)thianthren-1-yl)-4-morpholino pyridin-2(1H)-one] |
| 100 to 500 | O=c1cc(N2CCOCC2)cc(-c2cccc3c2Sc2ccc(NC4CCC(N5CCOCC5)CC4)cc2S3)[nH]1 (centres unmarked) [Example 1-36-1, 4-Morpholino-6-(7-((4-morpholinocyclohexyl)amino)thianthren-1-yl)pyridin-2(1H)-one] |
| 100 to 500 | CN(C)C1CCC(Nc2ccc3c(c2)Sc2cccc(-c4cc(N5CCOCC5)cc(=O)[nH]4)c2S3)CC1 (centres unmarked) [Example 1-36-2, 6-(7-((4-(Dimethylamino)cyclohexyl)amino)thianthren-1-yl)-4-morpholinopyridin-2(1H)-one] |
| 100 to 500 | CC1CCCN(CC(CO)Nc2ccc3c(c2)Sc2cccc(-c4cc(N5CCOCC5)cc(=O)[nH]4)c2S3)C1 (centres unmarked) [Example 1-37-1, 6-(7-((1-hydroxy-3-(3-methylpiperidin-1-yl)propan-2-yl)amino)thianthren-1-yl)-4-morpholinopyridin-2(1H)-one] |
| 100 to 500 | O=c1cc(N2CCOCC2)cc(-c2cccc3c2Sc2ccc(NC(CO)CN4CCOCC4)cc2S3)[nH]1 (centres unmarked) [Example 1-37-2, 6-(7-((1-Hydroxy-3-morpholinopropan-2-yl)amino)thianthren-1-yl)-4-morpholino pyridin-2(1H)-one] |
| 500 to 2000 | O=c1cc(N2CCOCC2)cc(-c2cccc3c2Sc2ccc(NC(CO)CN4CCCC4)cc2S3)[nH]1 (centres unmarked) [Example 1-37-3, 6-(7-((1-Hydroxy-3-(pyrrolidin-1-yl)propan-2-yl)amino)thianthren-1-yl)-4-morpholino pyridin-2(1H)-one] |
| 100 to 500 | O=c1cc(N2CCOCC2)cc(-c2cccc3c2Sc2ccc(NC(CO)CN4CCCCC4)cc2S3)[nH]1 (centres unmarked) [Example 1-37-4, 6-(7-((1-Hydroxy-3-(piperidin-1-yl)propan-2-yl)amino)thianthren-1-yl)-4-morpholino pyridin-2(1H)-one] |
| 100 to 500 | CC1CC(C)CN(CC(CO)Nc2ccc3c(c2)Sc2cccc(-c4cc(N5CCOCC5)cc(=O)[nH]4)c2S3)C1 (centres unmarked) [Example 1-37-5, 6-(7-((1-(3,5-Dimethylpiperidin-1-yl)-3-hydroxypropan-2-yl)amino)thianthren-1-yl)-4-morpholino pyridin-2 (1H)-one] |
| 100 to 500 | O=c1cc(N2CCOCC2)cc(-c2cccc3c2Sc2ccc(NC(CN4CCCCC4)CN4CCOCC4)cc2S3)[nH]1 (centres unmarked) [Example 1-39, 4-morpholino-6-(7-((1-morpholino-3-(piperidin-1-yl)propan-2-yl)amino)thianthren-1-yl)pyridin-2(1H)-one] |
| 100 to 500 | CC(CCN1CCN(C)CC1)Nc1ccc2c(c1)Sc1cccc(-c3cc(N4CCOCC4)cc(=O)[nH]3)c1S2 (centres unmarked) [Example 1-42-2, 6-(7-((4-(4-Methylpiperazin-1-yl)butan-2-yl)amino)thianthren-1-yl)-4-morpholino pyridin-2(1H)-one] |
| 100 to 500 | CC(CCN1CCCCC1)Nc1ccc2c(c1)Sc1cccc(-c3cc(N4CCOCC4)cc(=O)[nH]3)c1S2 (centres unmarked) [Example 1-42-3, 4-Morpholino-6-(7-((4-(piperidin-1-yl)butan-2-yl)amino)thianthren-1-yl) pyridin-2(1H)-one] |
| 100 to 500 | CC(CCN1CCCC1)Nc1ccc2c(c1)Sc1cccc(-c3cc(N4CCOCC4)cc(=O)[nH]3)c1S2 (centres unmarked) [Example 1-42-4, 4-Morpholino-6-(7-((4-(pyrrolidin-1-yl)butan-2-yl)amino)thianthren-1-yl) pyridin-2(1H)-one] |
| 100 to 500 | CC(CN1CCC1)Nc1ccc2c(c1)Sc1cccc(-c3cc(N4CCOCC4)cc(=O)[nH]3)c1S2 (centres unmarked) [Example 1-43-1, 6-(7-((1-(azetidin-1-yl)propan-2-yl)amino)thianthren-1-yl)-4-morpholinopyridin-2(1H)-one] |
| 100 to 500 | CC(CN1CC2(COC2)C1)Nc1ccc2c(c1)Sc1cccc(-c3cc(N4CCOCC4)cc(=O)[nH]3)c1S2 (centres unmarked) [Example 1-43-2, 6-(7-((1-(2-Oxa-6-azaspiro [3.3]heptan-6-yl)propan-2-yl)amino)thianthren-1-yl)-4-morpholino pyridin-2(1H)-one] |
